Assay [1] deals with human T-type voltage-gated calcium channel (hCav3.2). Kind of assay: Whole-cell patch-clamp of voltage-gated Ca2+ currents in HEK293T cells expressing hCav3.2. The following applies: 0.74 µM, n = 5. It counts as cell-based. How it is done:
Normalized conductance (G/G max) was generated for both data sets, fit to a Boltzmann equation, and is shown as data ± S.E.M. (n = 5). Statistical analyses were performed using Dunnett's multiple comparison tests. ^* p < 0.05 versus control. […]
Electrophysiological assays were done on human Cav3.2 channel, which was expressed on human embryonic kidney 293T (HEK293T) cells using Lipophectamine® 3000 transfection reagent. A pcDNA3 plasmid construct containing the complete sequence coding the human α1H-subunit of the Cav3.2 channel flanked by a green fluorescent protein was kindly provided by Prof. Edward Perez–Reyes (University of Virginia, Charlottesville, Virginia, USA).S1 Vo l t a g e-gated Ca2+ currents were recorded by the whole-cell patch-clamp technique, as previously described.28,S2 This recording was performed in the whole-cell conﬁguration using an Axopatch 200B Ampliﬁer (Axon CNS, Molecular Devices) at a holding potential of –90 mV. Cells were depolarized from the –90 mV holding potential to +80 mV with +10 mV voltage steps of 200 ms. The current amplitude was measured at the peak. The current density was determined with the cell capacitance to establish the density-voltage curves.
The currents were ﬁltered at 2 kHz and sampled at 5 kHz using an A/D converter, the Digidata 1440A (Axon CNS, Molecular Devices). The leak was subtracted automatically by a P/4 protocol (pclamp10, Axon CNS, Molecular Devices). For the recording Ca2+ currents, the bath solution contained 125 mM N-methyl-D-glucamine, 5 mM 4-aminopyridine, 20 mM tetraethylammonium chloride, 2 mM CaCl2, 2 mM MgCl2, and 10 mM D-glucose and was buffered to pH 7.4 with 10 mM HEPES. The patch pipettes were ﬁlled with solution containing 130 mM CsCl, 10 mM EGTA, 3 mM Mg–AT P, a n d 0 . 4 m M Li–GTP with the pH adjusted to 7.2 by 25 mM HEPES. Statistical analyses were performed using Dunnett’s multiple comparison tests. *, p < 0.05 versus control.
(§1) Circular dichroism spectrometry and stereostructure prediction of hSYN. […]
(§2) In brief, synthetic hSYN [1–53] (2) was dissolved in 50 mM KHPO4, pH 7.0 (ﬁnal concentration: 20 μM) in a 1 mm pathlength cell. The spectrum consisted of ﬁve scans acquired with a scan rate of 20 nm/min and a digital integration time of 2 sec. […]
(§3) Schrödinger, LLC) was used for calculation of surface charge and final image processing which suitable for scientific

Assay [2] concerns mealworms (larva of Zophobas atratus). Kind of assay: Mealworm paralysis bioassay, i.p. injection. It counts as in vivo. The note with it: for Paralyzed/total numbers: 100 µL per 1 g bodyweight, immediate lower-body paralysis. How it is done:
Paralytic activity against mealworms was examined by using synthetic 2 dissolved in saline with mealworms (larva of Zophobas atratus, body weight: 0.7–1.0 g), as described previously.28 Synthetic hSYN was injected into the abdomen of mealworms and observed immediate lower-body paralysis (injection volume: 100 μL per 1.0 g mealworm bodyweight).
Phosphate buffered saline (PBS) was used as a control. […]
HEPES. The patch pipettes were ﬁlled with solution containing 130 mM CsCl, 10 mM EGTA, 3 mM Mg–AT P, a n d 0 . 4 m M […]
as §1, §2, §3

Where no end group is shown, it is not given here.

Take “human synenkephalin [1–53] (ECSQDCATCSYRLVRPADINFLACVMECEGKLPSLKIWETCKELLQLSKPELP; disulfide (positions not given here); also: Type II disulfides, places not given here; UniProt P01210 25-77, looked up, fragment) [compound 2, human synenkephalin N-terminal part [1–53], three disulfide bonds Cys(I)–Cys(V), Cys(II)–Cys(IV), Cys(III)–Cys(VI)]”: in assay [1] (at −30 mV (control ca. −59 pA/pF at −10 mV)), the “lowest current density peak” value was “ca. −42 pA/pF”. Moreover, the “voltage of lowest current density peak” value in assay [1] (control peak at −10 mV) was −30 mV. In assay [1] (suggesting a block at higher membrane depolarization), the “current density at 0 to +20 mV” value is “significantly reduced”. Also, in assay [1] (whole-cell patch clamp, HEK293T cells, holding potential –90 mV, pH 7.4, Boltzmann fit, ± S.E.M., p < 0.05 versus control), the “hyperpolarization shift of hCav3.2 activation” value is listed as −15 mV. Also, the Paralyzed/total numbers is 0/4 in assay [2] (5.0 µg/g bodyweight), 0/3 in assay [2] (15 µg/g bodyweight) and 0/4 in assay [2] (50 µg/g bodyweight). In addition, the “paralytic effect on mealworms” value in assay [2] (even at 50 µg g−1 body weight) was “no paralytic effects on mealworms”.
